# Entries after “also recorded” stand apart in the source; their conditions may differ.
# Experiments:
# [1] = test system: NTox; test: protection of neurons against isolated NTox applied directly; type: cell-based
# [2] = test system: quinolinic acid (QUIN); test: protection of neurons against quinolinic acid; type: cell-based; conditions: QUIN (100 μM in FIG. 13)
# Text: (§1) FIG. 32 is a graph showing the specificity of tyramine compounds to NTox. […]
# [3] = test system: AMAA; test: protection of neurons against AMAA; type: cell-based; conditions: FIG. 32
# Text: as §1
# [4] = test system: NMDA receptor; test: whole cell current elicited by NMDA in Xenopus oocytes injected with NMDA R1 and R2 subunit cRNAs; type: cell-based; conditions: FIG. 34
# Text: FIG. 34 is a graph shorting the % maximal current peak elicited by NMDA, octopamine and tyramine compounds in the presence of a given NMDA concentration. […].
# The precise mechanism of NTox that leads to the destruction of neurons is only partially characterized. Based upon extensive testing with receptor antagonists, it has been discovered that two classes of neurotransmitter receptors are involved--the n-methyl D-aspartate (NMDA) class of […] receptors and the Muscarinic (M receptors) class of cholinergic receptors. […] […]. Further study to determine if tyramine compounds act upon the NMDA receptor itself involved expression of the NMDA receptor complex in Xenopus oocytes and measurement of ionic fluxes across the oocyte membrane that are elicited by NMDA. […] […]. […] Thus, tyramine compounds appear to have several actions, one of which is upon the NMDA receptor.
# [5] = test system: HEK cells expressing NMDA1b/2A; test: NTox killing of HEK cells expressing NMDA receptors, trypan blue; type: cell-based, human; conditions: 1 nM NTox, 24 hours
# Text: Photomicrograph of trypan blue(+) control HEK cells exposed to NTox. Few blue, dead cells are noted.
# [6] = test system: Aβ1-42-stimulated microglia; type: cell-based, rat
# Method in brief: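 E18 rat hippocampal cultures, microglia depleted with saporin–ac-LDL (10 μg/ml, 12 h) on day 14, then given test substances at 10μM with or without exogenous microglia (100,000 cells) for 72 h. Neurons immunostained (NF plus MAP-2) and nuclei counted by fluorescence microscopy; survival expressed as % of parallel untreated controls.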
# [7] = test system: human microglia stimulated with S5; type: cell-based;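 note: drugs applied at 10 µM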
structure (smiles),measurement,setting,value
C[C@]12N[C@H](Cc3ccccc31)c1ccccc12 [MK-801],"neuroprotective effects against NTox, concentration range",[1],~100 nM
same,inhibition of killing action of NTox applied to neurons,"[1]; isolated NTox, FIGS. 13, 32",NTox can be blocked
same,protection against quinolinic acid,[2],prevented from killing neurons
same,protection against AMAA,[3],prevented from killing neurons
same,effect on current elicited by NMDA,[4],could be blocked
same,blocking of NTox killing,[5],could be blocked
same,"drug blockade of neuron killing, rat microglia",[6],prevented neuronal loss; also recorded: blocked neuron death
same,"drug blockade of neuron killing, human microglia",[7],blocked neuron death

# — patent US6043283A, “Tyramine compounds and their neuronal effects” (priority 1997, dated 2000)
